One molecule from patent US20130225694A1, “COMPOSITIONS AND METHODS OF INHIBITING RETINAL DEGENERATION” (Oklahoma Medical Research Foundation, priority 2012, published 2013) can be followed below.

By IC50 is commonly meant the concentration at which inhibition is half-maximal.

One data set deals with cone photoreceptors. As to the kind of experiment: Cone function by single-flash photopic and flicker-flash ERG in rats. The class given is in vivo, rat. Conditions: 50 mg/kg, 60 minutes after administration, rod-suppressing background. As to the method: To evaluate cone function under conditions in which rod recovery is suppressed, rats were injected with PBN (50 mg/kg) or saline 60 minutes prior to recording single-flash photopic and flicker-flash ERG recordings. Rats were placed under a steady adapting field of 1.7 log cd·s/m^2 for at least 7 minutes. A single flash of 3.3 log cd·s/m^2 was presented under the same adapting field to elicit a maximal cone response. Cone responses were further evaluated by presenting 1.2 log cd·s/m^2 stimuli flickering at frequencies of 3-, 10-, 20-, and 30-Hz under the same adapting field.
To assess the effect of PBN administration on cone function under conditions when rod recovery was suppressed, single- and flicker-flash ERG recordings were performed under a steady, rod-suppressing background illumination 60 minutes after PBN administration.

The target in a further data set is T1, RPE65 isomerohydrolase (Rattus norvegicus, UniProt O70276).
T1 construct: 50 μg microsomal proteins from the rat RPE were added into 200 μl of reaction buffer; from tissue; host or cells: rat eyecup/RPE microsomes
T1 sequence (O70276 1-533): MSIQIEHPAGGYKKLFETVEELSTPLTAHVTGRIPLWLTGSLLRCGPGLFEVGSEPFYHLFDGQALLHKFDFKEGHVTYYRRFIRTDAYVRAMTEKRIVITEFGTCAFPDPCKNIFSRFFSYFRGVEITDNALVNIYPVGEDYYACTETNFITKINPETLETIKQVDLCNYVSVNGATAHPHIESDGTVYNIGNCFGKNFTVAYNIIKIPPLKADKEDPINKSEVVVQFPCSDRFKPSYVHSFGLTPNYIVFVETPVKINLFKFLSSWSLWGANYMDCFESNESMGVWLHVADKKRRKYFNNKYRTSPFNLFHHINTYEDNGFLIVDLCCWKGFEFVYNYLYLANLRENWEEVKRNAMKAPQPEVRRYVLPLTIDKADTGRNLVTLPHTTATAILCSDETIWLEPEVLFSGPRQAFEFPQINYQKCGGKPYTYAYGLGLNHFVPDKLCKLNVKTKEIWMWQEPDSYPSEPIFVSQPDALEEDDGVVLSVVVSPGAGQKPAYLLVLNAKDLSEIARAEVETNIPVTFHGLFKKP
As to the kind of experiment: Isomerohydrolase activity assay with rat RPE microsomes (Example 2). It is filed as biochemical. As for the experimental part:
(§1) Isomerohydrolase activity assay and PBN inhibition—Rats were sacrificed, and eyes were enucleated and dissected to remove the anterior part including lens, vitreous, and retina. The remaining eyecups containing RPE were sonicated 3 times for 20 seconds in a cold 0.32 M sucrose/0.1 M sodium phosphate buffer (pH 7.4). The homogenate was centrifuged (20 minutes, 20,000 g) to sediment sclera, unbroken cells, nuclei and mitochondria. The obtained supernatant was recentrifuged (1 hour, 100,000 g), and the microsomal pellet was resuspended in 10 mM 1,3-bis[tris(hydroxymethyl)-methylamino]propane (BTP), (pH 8.0) and 100 mM NaCl, and stored at −80° C. All-trans-[11,12-^3H]-retinol (1 mCi/ml, 45.5 Ci/mmol, American Radiolabeled Chemical, Inc., St. Louis, Mo.) in N,N-dimethyl formamide was used as the substrate for the isomerohydrolase assay. […] The upper layer was collected, and the generated retinoids were analyzed by normal phase HPLC as described (38). […] The isomerohydrolase activity was calculated from the area of the 11-cis-retinol peak using Radiomatic 610TR software (Perkin Elmer, Boston, Mass.) with synthetic 11-cis-[^3H]-retinol as a standard. […] The inhibition constant for PBN was calculated from the following equation: […] where [I]=concentration of PBN, Vm^i=maximal velocity in the presence of Vm=maximal velocity in the absence of PBN. […]

The next data set addresses T2, LRAT (Rattus norvegicus, UniProt Q9JI61).
T2 construct: from tissue; host or cells: rat eyecup/RPE microsomes
T2 sequence (Q9JI61 1-231): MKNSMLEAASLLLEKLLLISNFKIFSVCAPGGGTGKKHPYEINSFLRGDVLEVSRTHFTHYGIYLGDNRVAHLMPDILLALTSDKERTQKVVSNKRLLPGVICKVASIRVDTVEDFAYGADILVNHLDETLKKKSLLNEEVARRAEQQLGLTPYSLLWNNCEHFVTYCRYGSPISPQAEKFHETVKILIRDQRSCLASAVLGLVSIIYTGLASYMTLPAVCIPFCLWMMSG
As to the kind of experiment: Retinyl ester production by LRAT in rat RPE microsomes. It is filed as biochemical. Conditions: 1 mM PBN. As to the method: as §1

Regarding `CC(C)(C)/[N+]([O-])=C/c1ccccc1` [Compound 1, α-phenyl-N-tert-butyl nitrone], the “effect on cone function” value in the data set with cone photoreceptors is listed as “not affected”. At RPE65 isomerohydrolase (1 mM PBN), the “inhibition of 11-cis-retinol generation” value is reported as “almost complete inhibition”. Also, at RPE65 isomerohydrolase (rat RPE microsomes, 0.2 μM all-trans-[3H]-retinol, 1 h 37° C., read-out: apparent IC50 of isomerohydrolase activity), the IC50 was found to be 100 µM. Further, the “LRAT inhibition (production of retinyl ester)” value at LRAT is listed as “not inhibited”.
